{"source": "ChEMBL document CHEMBL4028815", "about": "“Novel phosphonate analogs of sulforaphane: Synthesis, in vitro and in vivo anticancer activity” (Eur J Med Chem, 2017)", "key": {"[1]": {"assay": "Cytotoxicity against human LoVo/DX cells assessed as cell death at >15 uM after 24 hrs", "assay_type": "cell-based"}, "[2]": {"system": "LoVo", "assay": "Potency index, ratio of benzyl isothiocyanate IC50 to compound IC50 for human LoVo cells", "assay_type": "functional"}, "[3]": {"system": "HL-60", "assay": "Cytotoxicity against human HL60 cells after 72 hrs by sulforhodamine B assay", "assay_type": "functional, cell-based", "settings": "HL-60, 72 h"}, "[4]": {"assay": "Resistance index, ratio of IC50 for human HL60/MX2 cells to IC50 for human HL60 cells", "assay_type": "functional"}, "[5]": {"system": "LoVo", "assay": "Cytotoxicity against human LoVo cells after 72 hrs by sulforhodamine B assay", "assay_type": "functional, cell-based"}, "[6]": {"assay": "Cytotoxicity against human LoVo/DX cells after 72 hrs by sulforhodamine B assay", "assay_type": "functional, cell-based"}, "[7]": {"assay": "Resistance index, ratio of IC50 for human LoVo/DX cells to IC50 for human LoVo cells", "assay_type": "functional"}, "[8]": {"system": "BALB/3T3", "assay": "Cytotoxicity against mouse BALB/3T3 cells after 72 hrs by sulforhodamine B assay", "assay_type": "cell-based", "settings": "BALB/3T3, 72 h"}, "[9]": {"system": "A549", "assay": "Cytotoxicity against human A549 cells after 72 hrs by sulforhodamine B assay", "assay_type": "functional, cell-based", "settings": "A549, 72 h"}, "[10]": {"system": "4T1", "assay": "Cytotoxicity against mouse 4T1 cells after 72 hrs by sulforhodamine B assay", "assay_type": "functional, cell-based", "settings": "4T1, 72 h"}, "[11]": {"system": "MES-SA", "assay": "Cytotoxicity against human MESSA cells after 72 hrs by sulforhodamine B assay", "assay_type": "functional, cell-based"}, "[12]": {"system": "MES-SA/Dx5", "assay": "Cytotoxicity against human MESSA/DX5 cells after 72 hrs by sulforhodamine B assay", "assay_type": "functional, cell-based", "settings": "MES-SA/Dx5, 72 h"}, "[13]": {"system": "LoVo/DX", "assay": "Cell cycle arrest in human LoVo/DX cells assessed as accumulation at G2/M phase at 15 uM after 24 hrs by propidium iodide staining based flow cytometric method", "assay_type": "functional"}, "[14]": {"system": "LoVo", "assay": "Cell cycle arrest in human LoVo cells assessed as accumulation at G2/M phase at 15 uM after 24 hrs by propidium iodide staining based flow cytometric method", "assay_type": "functional"}, "[15]": {"system": "LoVo", "assay": "Cell cycle arrest in human LoVo cells assessed as decrease in accumulation at G0/G1 phase at 15 uM after 24 hrs by propidium iodide staining based flow cytometric method", "assay_type": "functional"}, "[16]": {"assay": "Induction of apoptosis in human LoVo/DX cells assessed as increase in caspase3/7 activity at 15 uM using Ac-DEVD-ACC as substrate pretreated for 24 hrs followed by substrate addition measured for 2 hrs by fluorescence assay relative to control", "assay_type": "functional"}, "[17]": {"system": "LoVo", "assay": "Induction of apoptosis in human LoVo cells assessed as increase in caspase3/7 activity at 15 uM using Ac-DEVD-ACC as substrate pretreated for 24 hrs followed by substrate addition measured for 2 hrs by fluorescence assay relative to control", "assay_type": "functional"}, "[18]": {"system": "LoVo", "assay": "Induction of apoptosis in human LoVo cells assessed as loss of mitochondrial membrane potential at 15 uM after 24 hrs by JC-1 staining based flow cytometric method relative to control", "assay_type": "functional"}, "[19]": {"assay": "Induction of apoptosis in human LoVo/DX cells assessed as loss of mitochondrial membrane potential at 15 uM after 24 hrs by JC-1 staining based flow cytometric method relative to control", "assay_type": "functional"}, "[20]": {"system": "LoVo", "assay": "Induction of apoptosis in human LoVo cells assessed as late apoptotic cells at 15 uM after 24 hrs by APC-Annexin-V/propidium iodide staining based flow cytometric method relative to control", "assay_type": "functional"}, "[21]": {"system": "LoVo", "assay": "Induction of apoptosis in human LoVo cells assessed as increase in early apoptotic cells at 15 uM after 24 hrs by APC-Annexin-V/propidium iodide staining based flow cytometric method relative to control", "assay_type": "functional"}, "[22]": {"system": "LoVo", "assay": "Induction of apoptosis in human LoVo cells assessed as necrotic cells at 15 uM after 24 hrs by APC-Annexin-V/propidium iodide staining based flow cytometric method (reference value: 10%)", "assay_type": "functional"}, "[23]": {"system": "4T1", "assay": "Anti-tumor activity against mouse 4T1 cells implanted in BALB/c mdb mouse assessed as tumor growth inhibition at 100 umol/kg, ip administered five times weekly measured on day 15 post cell innoculum relative to control", "assay_type": "functional", "settings": "4T1, ip, 360 h, read-out: TGI"}, "[24]": {"system": "4T1", "assay": "Anti-tumor activity against mouse 4T1 cells implanted in BALB/c mdb mouse assessed as tumor growth inhibition at 100 umol/kg, ip administered five times weekly measured on day 29 post cell innoculum relative to control", "assay_type": "functional", "settings": "4T1, ip, 696 h, read-out: TGI"}, "[25]": {"system": "Mus musculus", "assay": "Toxicity in BALB/c mdb mouse implanted with mouse 4T1 cells assessed as body weight loss at 100 umol/kg, ip administered five times weekly measured 3 times weekly during compound dosing", "assay_type": "organism-based", "settings": "in vivo"}, "[26]": {"system": "Mus musculus", "assay": "Hepatotoxicity in BALB/c mdb mouse implanted with mouse 4T1 cells assessed as liver weight at 100 umol/kg, ip administered five times weekly measured at 29 day post cell innoculum (reference value: 1.2 +/- 0.13 g)", "assay_type": "toxicity, organism-based", "settings": "in vivo, 696 h"}, "[27]": {"system": "Mus musculus", "assay": "Nephrotoxicity in BALB/c mdb mouse implanted with mouse 4T1 cells assessed as kidney weight at 100 umol/kg, ip administered five times weekly measured at 29 day post cell innoculum (reference value: 0.136 +/- 0.006 g)", "assay_type": "toxicity, organism-based", "settings": "in vivo, 696 h"}, "[28]": {"system": "Mus musculus", "assay": "Toxicity in BALB/c mdb mouse implanted with mouse 4T1 cells assessed as spleen weight at 100 umol/kg, ip administered five times weekly measured at 29 day post cell innoculum (reference value: 0.603 +/- 0.133 g)", "assay_type": "organism-based", "settings": "in vivo, 696 h"}, "[29]": {"system": "4T1", "assay": "Anti-tumor activity against mouse 4T1 cells implanted in BALB/c mdb mouse assessed as lung metastasis at 100 umol/kg, ip administered five times weekly measured at 29 days post cell innoculum (reference value: 56 +/- 25)", "assay_type": "functional"}, "[30]": {"system": "Mus musculus", "assay": "Toxicity in BALB/c mdb mouse implanted with mouse 4T1 cells assessed as WBC level at 100 umol/kg, ip administered five times weekly measured at 29 day post cell innoculum (reference value: 212.3 +/- 82.8 10^3/uL)", "assay_type": "organism-based", "settings": "in vivo, 696 h"}, "[31]": {"system": "Mus musculus", "assay": "Toxicity in BALB/c mdb mouse implanted with mouse 4T1 cells assessed as RBC level at 100 umol/kg, ip administered five times weekly measured at 29 day post cell innoculum (reference value: 8.6 +/- 0.9 10^6/uL)", "assay_type": "organism-based", "settings": "in vivo, 696 h"}, "[32]": {"system": "Mus musculus", "assay": "Toxicity in BALB/c mdb mouse implanted with mouse 4T1 cells assessed as hemoglobin level at 100 umol/kg, ip administered five times weekly measured at 29 day post cell innoculum (reference value: 15.1 +/- 1.5 g/dl)", "assay_type": "organism-based", "settings": "in vivo, 696 h"}, "[33]": {"system": "Mus musculus", "assay": "Toxicity in BALB/c mdb mouse implanted with mouse 4T1 cells assessed as hematocrit at 100 umol/kg, ip administered five times weekly measured at 29 day post cell innoculum (reference value: 39.9 +/- 3.7 %)", "assay_type": "organism-based", "settings": "in vivo, 696 h"}, "[34]": {"system": "Mus musculus", "assay": "Toxicity in BALB/c mdb mouse implanted with mouse 4T1 cells assessed as serum PLT level at 100 umol/kg, ip administered five times weekly measured at 29 day post cell innoculum (reference value: 972 +/- 157 10^3/uL)", "assay_type": "organism-based", "settings": "in vivo, 696 h"}, "[35]": {"system": "Mus musculus", "assay": "Toxicity in BALB/c mdb mouse implanted with mouse 4T1 cells assessed as serum ALT level at 100 umol/kg, ip administered five times weekly measured at 29 day post cell innoculum (reference value: 23.8 +/- 2.2 U/L)", "assay_type": "organism-based", "settings": "in vivo, 696 h"}, "[36]": {"system": "Mus musculus", "assay": "Toxicity in BALB/c mdb mouse implanted with mouse 4T1 cells assessed as serum AST level at 100 umol/kg, ip administered five times weekly measured at 29 day post cell innoculum (reference value: 136 +/- 10.3 U/L)", "assay_type": "organism-based", "settings": "in vivo, 696 h"}, "[37]": {"system": "LoVo", "assay": "Cytotoxicity against human LoVo cells assessed as cell death at >15 uM after 24 hrs", "assay_type": "cell-based"}}, "note": "Calls of active or inactive are those of the source. No cut-off for these calls is given here.", "data": [{"molecule": "O=P(CCCCCCN=C=S)(Oc1ccccc1)Oc1ccccc1", "values": [{"measurement": "Activity", "setting": "[1]", "value": "Toxic"}, {"measurement": "Ratio IC50", "setting": "[2]", "value": 5}, {"measurement": "IC50", "setting": "[3]", "value": 0.8, "unit": "µM"}, {"measurement": "Ratio IC50", "setting": "[4]", "value": 4.3}, {"measurement": "IC50", "setting": "[5]", "value": 2.9, "unit": "µM"}, {"measurement": "IC50", "setting": "[6]", "value": 11.2, "unit": "µM"}, {"measurement": "Ratio IC50", "setting": "[7]", "value": 4}, {"measurement": "IC50", "setting": "[8]", "value": 11.5, "unit": "µM"}, {"measurement": "IC50", "setting": "[9]", "value": 11.1, "unit": "µM"}, {"measurement": "IC50", "setting": "[10]", "value": 2.9, "unit": "µM"}, {"measurement": "IC50", "setting": "[11]", "value": 10.6, "unit": "µM"}, {"measurement": "IC50", "setting": "[12]", "value": 8.3, "unit": "µM"}, {"measurement": "Activity", "setting": "[13]", "value": "Active"}, {"measurement": "Activity", "setting": "[14]", "value": "Active"}, {"measurement": "Activity", "setting": "[15]", "value": "Active"}, {"measurement": "fold change (FC)", "setting": "[16]", "value": 6.8}, {"measurement": "fold change (FC)", "setting": "[17]", "value": 6.8}, {"measurement": "Activity", "setting": "[18]", "value": 79.3, "unit": "%"}, {"measurement": "Activity", "setting": "[19]", "value": 67, "unit": "%"}, {"measurement": "Activity", "setting": "[20]", "value": 54.6, "unit": "%"}, {"measurement": "Activity", "setting": "[21]", "value": "inactive"}, {"measurement": "Activity", "setting": "[22]", "value": 23.3, "unit": "%"}, {"measurement": "inhibition in vivo at 100 µmol/kg", "setting": "[23]", "value": 23.1, "unit": "%"}, {"measurement": "inhibition in vivo at 100 µmol/kg", "setting": "[24]", "value": -6.4, "unit": "%"}, {"measurement": "Activity", "setting": "[25]", "value": "<= 10%"}, {"measurement": "Activity", "setting": "[26]", "value": 1.32, "unit": "g"}, {"measurement": "Activity", "setting": "[27]", "value": 0.143, "unit": "g"}, {"measurement": "Activity", "setting": "[28]", "value": 0.632, "unit": "g"}, {"measurement": "Activity", "setting": "[29]", "value": 46}, {"measurement": "Activity", "setting": "[30]", "value": 375.9, "unit": "×10³ /uL"}, {"measurement": "Activity", "setting": "[31]", "value": 11.6, "unit": "×10⁶ /uL"}, {"measurement": "Activity", "setting": "[32]", "value": 20.8, "unit": "g/dL"}, {"measurement": "Activity", "setting": "[33]", "value": 57.6, "unit": "%"}, {"measurement": "Activity", "setting": "[34]", "value": 855, "unit": "×10³ /uL"}, {"measurement": "Activity", "setting": "[35]", "value": 33.3, "unit": "U/L"}, {"measurement": "Activity", "setting": "[36]", "value": 153, "unit": "U/L"}, {"measurement": "Activity", "setting": "[37]", "value": "Toxic"}]}]}
